From publication PMC10583863 (European journal of medicinal chemistry, 2022)

Tests used:
Format in all cases: cell-based, Mycobacterium tuberculosis
[1] = system: DR1 (mmpl3, V681I)
[2] = system: NTB1 (dprE1, G387S)
[3] = system: 53.3 (Rv2466c, W28S)
[4] = system: 88.1 (coaA, Q207R)
[5] = system: 53.8 (Rv0579, L240V)
[6] = system: 88.7 (pyrG, V186G)

Measured: MIC90

NNC(=O)c1ccncc1 [INH, Isoniazide]
0.025 µg/mL: all assays above
